The values that follow come from patent publication US10221179B2, “Substituted pyrazoloquinazolinones and pyrroloquinazolinones as allosteric modulators of group II metabotropic glutamate receptors” (DOMAIN THERAPEUTICS, priority 2014, dated 2019).

Where a name gives a salt, the structure may show the parent alone.

Turning to `Cl.Cn1c(=O)c2cc(OCCN3CCOCC3)ccc2n2nc(-c3ccnc(C(F)(F)F)c3)cc12`, the melting point – broadly, the temperature of the solid-liquid transition – was greater than 250 °C. Turning to `CN1CCN(c2ccc3c(=O)n(C)c4cc(-c5ccnc(C(F)(F)F)c5)nn4c3c2)CC1.Cl`, the melting point is greater than 250 °C. The same measure for `Cl.Cn1c(=O)c2ccc(N3CCNCC3)cc2n2nc(-c3ccnc(C(F)(F)F)c3)cc12`: greater than 250 °C; for `Cl.Cn1c(=O)c2ccccc2n2nc(-c3ccnc(C4CCCC4)c3)cc12`: greater than 250 °C. The same measure for `Cl.Cn1c(=O)c2ccccc2n2nc(-c3ccnc(C4CCCCC4)c3)cc12`: greater than 250 °C; for `COc1ccc2c(c1)c(=O)n(C)c1cc(-c3ccnc(C4CC4)c3)nn21` (as salt: HCl) [Example 100, 2-(2-Cyclopropyl-pyridin-4-yl)-7-methoxy-4-methyl-4H-pyrazolo[1,5-a]quinazolin-5-one]: 230 to 240 °C; for `Cn1c(=O)c2ccccc2n2nc(-c3ccncc3)cc12` (as salt: HCl) [Example 104, 4-Methyl-2-pyridin-4-yl-4H-pyrazolo[1,5-a]quinazolin-5-one]: greater than 250 °C.

For `Cc1cc(-c2cc3n(C)c(=O)c4ccccc4n3n2)cc(C2CC2)n1` (as salt: HCl) [Example 106, 2-(2-Cyclopropyl-6-methyl-pyridin-4-yl)-4-methyl-4H-pyrazolo[1,5-a]quinazolin-5-one], the melting point is greater than 250 °C. As for `Cn1c(=O)c2ccccc2n2nc(-c3ccnc(OC4COC4)c3)cc12` [Example 18, 4-Methyl-2-[2-(oxetan-3-yloxy)-pyridin-4-yl]-4H-pyrazolo[1,5-a]quinazolin-5-one], the figure is 219 to 223 °C; as for `COCCOc1cc(-c2cc3n(C)c(=O)c4ccccc4n3n2)ccn1` [Example 20, 2-[2-(2-Methoxy-ethoxy)-pyridin-4-yl]-4-methyl-4H-pyrazolo[1,5-a]quinazolin-5-one], 169 to 173 °C; as for `O=c1c2ccccc2n2nc(-c3ccnc(C(F)(F)F)c3)cc2n1CC(F)F` [Example 29, 4-(2,2-Difluoro-ethyl)-2-(2-trifluoromethyl-pyridin-4-yl)-4H-pyrazolo[1,5-a]quinazolin-5-one], 223 to 230 °C. The same measure for `COCCn1c(=O)c2ccccc2n2nc(-c3ccnc(C(F)(F)F)c3)cc12` [Example 30, 4-(2-Methoxy-ethyl)-2-(2-trifluoromethyl-pyridin-4-yl)-4H-pyrazolo[1,5-a]quinazolin-5-one]: 165 to 174 °C; for `Cn1c(=O)c2cc(C(F)(F)F)ccc2n2nc(-c3ccnc(C(F)(F)F)c3)cc12` [Example 37]: 205 to 210 °C; for `CC(=O)Nc1ccc2c(c1)c(=O)n(C)c1cc(-c3ccnc(C(F)(F)F)c3)nn21` [Example 42, N-[4-Methyl-5-oxo-2-(2-trifluoromethyl-pyridin-4-yl)-4,5-dihydro-pyrazolo[1,5-a]quinazolin-7-yl]-acetamide]: greater than 250 °C. As for `Cn1c(=O)c2cc(N)ccc2n2nc(-c3ccnc(C(F)(F)F)c3)cc12` [Example 43, 7-Amino-4-methyl-2-(2-trifluoromethyl-pyridin-4-yl)-4H-pyrazolo[1,5-a]quinazolin-5-one], the figure is 245 to 250 °C.

In turn, `Cn1c(=O)c2cc(NC3CCC3)ccc2n2nc(-c3ccnc(C(F)(F)F)c3)cc12` [Example 46, 7-Cyclobutylamino-4-methyl-2-(2-trifluoromethyl-pyridin-4-yl)-4H-pyrazolo[1,5-a]quinazolin-5-one] displayed a melting point of 220 to 225 °C. As for `Cn1c(=O)c2cc(N3CCOCC3)ccc2n2nc(-c3ccnc(C(F)(F)F)c3)cc12` [Example 47, 4-Methyl-7-morpholin-4-yl-2-(2-trifluoromethyl-pyridin-4-yl)-4H-pyrazolo[1,5-a]quinazolin-5-one], the figure is 149 to 163 °C. The same measure for `COCCOc1ccc2c(c1)c(=O)n(C)c1cc(-c3ccnc(C(F)(F)F)c3)nn21` [Example 50, 7-(2-Methoxy-ethoxy)-4-methyl-2-(2-trifluoromethyl-pyridin-4-yl)-4H-pyrazolo[1,5-a]quinazolin-5-one]: 182 to 189 °C; for `Cn1c(=O)c2cc(OC(F)(F)F)ccc2n2nc(-c3ccnc(C(F)(F)F)c3)cc12` [Example 52, 4-Methyl-7-trifluoromethoxy-2-(2-trifluoromethyl-pyridin-4-yl)-4H-pyrazolo[1,5-a]quinazolin-5-one]: 240 to 245 °C.

`Cn1c(=O)c2cc(S(C)(=O)=O)ccc2n2nc(-c3ccnc(C(F)(F)F)c3)cc12` [Example 53, 7-Methanesulfonyl-4-methyl-2-(2-trifluoromethyl-pyridin-4-yl)-4H-pyrazolo[1,5-a]quinazolin-5-one] had a melting point greater than 250 °C. As for `COc1ccc2c(=O)n(C)c3cc(-c4ccnc(C(F)(F)F)c4)nn3c2c1` [Example 54, 8-Methoxy-4-methyl-2-(2-trifluoromethyl-pyridin-4-yl)-4H-pyrazolo[1,5-a]quinazolin-5-one], the figure is greater than 250 °C; as for `Cn1c(=O)c2ccc(N3CCOCC3)cc2n2nc(-c3ccnc(C(F)(F)F)c3)cc12` [Example 59, 4-Methyl-8-morpholin-4-yl-2-(2-trifluoromethyl-pyridin-4-yl)-4H-pyrazolo[1,5-a]quinazolin-5-one], greater than 250 °C. The same measure for `Cn1c(=O)c2ccc(N3CCCC3)cc2n2nc(-c3ccnc(C(F)(F)F)c3)cc12` [Example 60, 4-Methyl-8-pyrrolidin-1-yl-2-(2-trifluoromethyl-pyridin-4-yl)-4H-pyrazolo[1,5-a]quinazolin-5-one]: greater than 250 °C. The same measure for `COC1CCN(c2ccc3c(=O)n(C)c4cc(-c5ccnc(C(F)(F)F)c5)nn4c3c2)CC1` [Example 62, 8-(4-Methoxy-piperidin-1-yl)-4-methyl-2-(2-trifluoromethyl-pyridin-4-yl)-4H-pyrazolo[1,5-a]quinazolin-5-one]: greater than 250 °C. `Cn1c(=O)c2ccc(N3CCC(CO)CC3)cc2n2nc(-c3ccnc(C(F)(F)F)c3)cc12` [Example 67, 8-(4-Hydroxymethyl-piperidin-1-yl)-4-methyl-2-(2-trifluoromethyl-pyridin-4-yl)-4H-pyrazolo[1,5-a]quinazoin-5-one] returned a melting point of 205 to 210 °C. The same measure for `Cn1c(=O)c2ccc(N3CC(CO)C3)cc2n2nc(-c3ccnc(C(F)(F)F)c3)cc12` [Example 69, 8-(3-Hydroxymethyl-azetidin-1-yl)-4-methyl-2-(2-trifluoromethyl-pyridin-4-yl)-4H-pyrazolo[1,5-a]quinazolin-5-one]: greater than 250 °C; for `Cn1c(=O)c2ccc(N3CCC(C)(O)CC3)cc2n2nc(-c3ccnc(C(F)(F)F)c3)cc12` [Example 71, 8-(4-Hydroxy-4-methyl-piperidin-1-yl)-4-methyl-2-(2-trifluoromethyl-pyridin-4-yl)-4H-pyrazolo[1,5-a]quinazolin-5-one]: greater than 250 °C. As to `Cc1ccc2c(=O)n(C)c3cc(-c4ccnc(C(F)(F)F)c4)nn3c2c1` [Example 72, 4,8-Dimethyl-2-(2-trifluoromethyl-pyridin-4-yl)-4H-pyrazolo[1,5-a]quinazolin-5-one], the melting point is greater than 250 °C. The same measure for `Cn1c(=O)c2ccc(C3CC3)cc2n2nc(-c3ccnc(C(F)(F)F)c3)cc12` [Example 73, 8-Cyclopropyl-4-methyl-2-(2-trifluoromethyl-pyridin-4-yl)-4H-pyrazolo[1,5-a]quinazolin-5-one]: greater than 250 °C; for `Cn1c(=O)c2ccc(C3CCCC3)cc2n2nc(-c3ccnc(C(F)(F)F)c3)cc12` [Example 74, 8-Cyclopentyl-4-methyl-2-(2-trifluoromethyl-pyridin-4-yl)-4H-pyrazolo[1,5-a]quinazolin-5-one]: 246 to 250 °C. As for `Cn1c(=O)c2ccc(C#N)cc2n2nc(-c3ccnc(C(F)(F)F)c3)cc12` [Example 75, 4-Methyl-5-oxo-2-(2-trifluoromethyl-pyridin-4-yl)-4,5-dihydro-pyrazolo[1,5-a]quinazoline-8-carbonitrile], the figure is greater than 250 °C; as for `Cn1c(=O)c2ccc(C(=O)O)cc2n2nc(-c3ccnc(C(F)(F)F)c3)cc12` [Example 76, 4-Methyl-5-oxo-2-(2-trifluoromethyl-pyridin-4-yl)-4,5-dihydro-pyrazolo[1,5-a]quinazoline-8-carboxylic Acid], greater than 250 °C. The same measure for `Cn1c(=O)c2ccc(OCCO)cc2n2nc(-c3ccnc(C(F)(F)F)c3)cc12` [Example 83, 8-(2-Hydroxy-ethoxy)-4-methyl-2-(2-trifluoromethyl-pyridin-4-yl)-4H-pyrazolo[1,5-a]quinazolin-5-one]: 128 to 134 °C. `COc1cccc2c(=O)n(C)c3cc(-c4ccnc(C(F)(F)F)c4)nn3c12` [Example 86, 9-Methoxy-4-methyl-2-(2-trifluoromethyl-pyridin-4-yl)-4H-pyrazolo[1,5-a]quinazolin-5-one] yielded a melting point greater than 250 °C.

As to `COc1ccc2c(c1)c(=O)n(C)c1cc(-c3ccnc(F)c3)nn21` [Example 101, 2-(2-Fluoro-pyridin-4-yl)-7-methoxy-4-methyl-4H-pyrazolo[1,5-a]quinazolin-5-one], the melting point lay within 235 to 245 °C. The same measure for `Cn1cc(-c2cc3n(C)c(=O)c4ccccc4n3n2)cn1` [Example 103, 4-Methyl-2-(1-methyl-1H-pyrazol-4-yl)-4H-pyrazolo[1,5-a]quinazolin-5-one]: 195 to 199 °C; for `Cn1c(=O)c2ccccc2n2nc(-c3ccncc3F)cc12` [Example 107, 2-(3-Fluoro-pyridin-4-yl)-4-methyl-4H-pyrazolo[1,5-a]quinazolin-5-one]: 244 to 247 °C; for `Cc1cnccc1-c1cc2n(C)c(=O)c3ccccc3n2n1` [Example 109, 4-Methyl-2-(3-methyl-pyridin-4-yl)-4H-pyrazolo[1,5-a]quinazolin-5-one]: 145 to 150 °C.

Take `Cn1c(=O)c2ccc(OCCCO)cc2n2nc(-c3ccnc(C(F)(F)F)c3)cc12` [Example 111, 8-(3-Hydroxy-propoxy)-4-methyl-2-(2-trifluoromethyl-pyridin-4-yl)-4H-pyrazolo[1,5-a]quinazolin-5-one]: the melting point was in the range of 223 to 226 °C.
